Reference: ChEMBL document CHEMBL1151284, “Antimycobacterial scalarane-based sesterterpenes from the Red Sea sponge Hyrtios erecta” (2005)

Each compound was assayed on Mycobacterium tuberculosis (assay: Antimycobacterial activity against Mycobacterium tuberculosis H37Rv ATCC 27294 at 6.25 uM by microplate alamar blue assay).
Format: functional

SMILES | inhibition at 6.25 µM [%]
CC1(C)CCC[C@]2(C)[C@H]3C[C@@H](O)[C@]4(C)[C@H]5COC(=O)C5=CC[C@H]4[C@]3(C)CC[C@@H]12 | 16
CC(=O)O[C@H]1CC[C@]2(C)[C@H]3C[C@@H](O)[C@]4(C)C5=C(CC[C@H]4[C@]3(C)CC[C@H]2C1(C)C)COC5=O | 13
CC(=O)O[C@H]1C[C@H]2[C@]3(C)CC[C@H]4C(C)(C)CCC[C@]4(C)[C@H]3C[C@@H](O)[C@]2(C)[C@H]2OC(=O)C=C12 | 40
CC(=O)O[C@H]1C[C@H]2[C@]3(C)CC[C@H]4C(C)(C)CCC[C@]4(C)[C@H]3C[C@@H](O)[C@]2(C)C2=C1COC2=O [SESTERSTATIN 7] | 63
